# Where “and” joins values, the source holds several entries; their conditions need not be identical. Equal entries are not always repeated.
# Molecular target: human PD-L1 (Homo sapiens (Human), UniProt Q9NZQ7)
# Experiment: T cell activation luciferase reporter cell culture system (T Cell Activation Assay)
# Format: cell-based
# Conditions: luciferase reporter assay; PD-L1 aAPC/CHO-K1 cells with PD-1 effector Jurkat T cells
# Chain of human PD-L1 (Q9NZQ7 19-290): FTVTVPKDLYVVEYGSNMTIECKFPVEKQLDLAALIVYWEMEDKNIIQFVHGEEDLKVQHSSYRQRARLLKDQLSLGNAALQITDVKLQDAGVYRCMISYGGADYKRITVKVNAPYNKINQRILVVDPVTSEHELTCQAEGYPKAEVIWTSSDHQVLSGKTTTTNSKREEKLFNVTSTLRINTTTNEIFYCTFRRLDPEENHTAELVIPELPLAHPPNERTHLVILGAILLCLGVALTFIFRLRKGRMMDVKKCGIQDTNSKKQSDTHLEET
row,SMILES,EC50
1,"COc1cc(-c2nccc(-c3cccc(-c4ccc5c(CNC[C@@H]6CCO6)cn(C)c5n4)c3Cl)c2Cl)ccc1CNC[C@@H]1CCC(=O)N1 [Cmpd 58, (S)-5-(((4-(3-chloro-4-(2-chloro-3-(1-methyl-3-(((((S)-oxetan-2-yl)methyl)amino)methyl)-1H-pyrrolo[2,3-b]pyridin-6-yl)phenyl)pyridin-2-yl)-2-methoxybenzyl)amino)methyl)pyrrolidin-2-one]",37.3 nM
2,"COc1cc(-c2nccc(-c3cccc(-c4ccc5c(CNC6CCOCC6)cn(C)c5n4)c3Cl)c2Cl)ccc1CNC[C@@H]1CCC(=O)N1 [Cmpd 59, (S)-5-(((4-(3-chloro-4-(2-chloro-3-(1-methyl-3-(((tetrahydro-2H-pyran-4-yl)amino)methyl)-1H-pyrrolo[2,3-b]pyridin-6-yl)phenyl)pyridin-2-yl)-2-methoxybenzyl)amino)methyl)pyrrolidin-2-one]",50.8 nM
3,"COc1cc(-c2nccc(-c3cccc(-c4ccc5c(CNC6CCS(=O)(=O)CC6)cn(C)c5n4)c3Cl)c2Cl)ccc1CNC[C@@H]1CCC(=O)N1 [Cmpd 60, (S)-5-(((4-(3-chloro-4-(2-chloro-3-(3-(((1,1-dioxidotetrahydro-2H-thiopyran-4-yl)amino)methyl)-1-methyl-1H-pyrrolo[2,3-b]pyridin-6-yl)phenyl)pyridin-2-yl)-2-methoxybenzyl)amino)methyl)pyrrolidin-2-one]",44.6 nM
4,"COc1nc(-c2cccc(-c3ccnc(-c4cc(F)c5c(c4)CCN(C[C@@H]4CCC(=O)N4)C5)c3Cl)c2Cl)ccc1CNC[C@@H]1CCC(=O)N1 [Cmpd 61, (S)-5-((((6-(2-chloro-3-(3-chloro-2-(8-fluoro-2-(((S)-5-oxopyrrolidin-2-yl)methyl)-1,2,3,4-tetrahydroisoquinolin-6-yl)pyridin-4-yl)phenyl)-2-methoxypyridin-3-yl)methyl)amino)methyl)pyrrolidin-2-one]",75.5 nM
5,"COc1cc(-c2nccc(-c3cccc(-c4ccc(CNC[C@@H]5CCC(=O)N5)c(OC)n4)c3Cl)c2Cl)cc2c1CN(CC1CCN(C(C)=O)CC1)CC2 [Cmpd 62, (S)-5-((((6-(3-(2-(2-((1-acetylpiperidin-4-yl)methyl)-8-methoxy-1,2,3,4-tetrahydroisoquinolin-6-yl)-3-chloropyridin-4-yl)-2-chlorophenyl)-2-methoxypyridin-3-yl)methyl)amino)methyl)pyrrolidin-2-one]",27 nM
6,"COc1cc(-c2nccc(-c3cccc(-c4ccc(CNC[C@@H]5CCC(=O)N5)c(OC)n4)c3Cl)c2Cl)cc2c1CN(CCC1CCNCC1)CC2 [Cmpd 64, (S)-5-((((6-(2-chloro-3-(3-chloro-2-(8-methoxy-2-(2-(piperidin-4-yl)ethyl)-1,2,3,4-tetrahydroisoquinolin-6-yl)pyridin-4-yl)phenyl)-2-methoxypyridin-3-yl)methyl)amino)methyl)pyrrolidin-2-one]",71.9 nM
7,"COc1nc(-c2cccc(-c3ccnc(-c4cc(F)c5c(c4)CCN(CCCF)C5)c3Cl)c2Cl)ccc1CNC[C@@H]1CCC(=O)N1 [Cmpd 65, (S)-5-((((6-(2-chloro-3-(3-chloro-2-(8-fluoro-2-(3-fluoropropyl)-1,2,3,4-tetrahydroisoquinolin-6-yl)pyridin-4-yl)phenyl)-2-methoxypyridin-3-yl)methyl)amino)methyl)pyrrolidin-2-one]",194 nM
8,"COc1nc(-c2cccc(-c3ccnc(-c4cc(Cl)c5c(c4)CCN(C[C@@H]4CCC(=O)N4)C5)c3Cl)c2Cl)ccc1CNC[C@@H]1CCC(=O)N1 [Cmpd 67, (S)-5-((((6-(2-chloro-3-(3-chloro-2-(8-chloro-2-(((S)-5-oxopyrrolidin-2-yl)methyl)-1,2,3,4-tetrahydroisoquinolin-6-yl)pyridin-4-yl)phenyl)-2-methoxypyridin-3-yl)methyl)amino)methyl)pyrrolidin-2-one]",101 nM
9,"COc1cc(-c2nccc(-c3cccc(-c4cc(Cl)c(CNC[C@@H]5CCC(=O)N5)c(OC)n4)c3Cl)c2Cl)ccc1CN(C)C[C@H](C)O [Cmpd 71, (S)-5-((((4-chloro-6-(2-chloro-3-(3-chloro-2-(4-((((S)-2-hydroxypropyl)(methyl)amino)methyl)-3-methoxyphenyl)pyridin-4-yl)phenyl)-2-methoxypyridin-3-yl)methyl)amino)methyl)pyrrolidin-2-one]",30.6 nM
10,"COc1nc(-c2cccc(-c3ccnc(-c4cc(Cl)c5c(c4)CCN(CCCF)C5)c3Cl)c2Cl)ccc1CNC[C@@H]1CCC(=O)N1 [Cmpd 72, (S)-5-((((6-(2-chloro-3-(3-chloro-2-(8-chloro-2-(3-fluoropropyl)-1,2,3,4-tetrahydroisoquinolin-6-yl)pyridin-4-yl)phenyl)-2-methoxypyridin-3-yl)methyl)amino)methyl)pyrrolidin-2-one]",392 nM
11,"COc1cc(-c2nccc(-c3cccc(-c4ccc(CNC[C@@H]5CCC(=O)N5)c(OC)n4)c3Cl)c2Cl)cc2c1CN(CCC1(O)CC1)CC2 [Cmpd 74, (S)-5-((((6-(2-chloro-3-(3-chloro-2-(2-(2-(1-hydroxycyclopropyl)ethyl)-8-methoxy-1,2,3,4-tetrahydroisoquinolin-6-yl)pyridin-4-yl)phenyl)-2-methoxypyridin-3-yl)methyl)amino)methyl)pyrrolidin-2-one]",70 nM
12,COc1cc(-c2nccc(-c3cccc(-c4ccc(CNC[C@@H]5CCC(=O)N5)c(OC)n4)c3Cl)c2Cl)cc(F)c1CN[C@H]1C[C@](C)(O)C1 [Cmpd 79],50.6 nM

# Continued, values first:
row,EC50,SMILES
1,399 nM,"COc1cc(-c2nccc(-c3cccc(-c4ccc(CNC[C@@H]5CCC(=O)N5)c(OC)n4)c3Cl)c2Cl)cc2c1CN(CC(O)C(C)C)CC2 (stereo partly drawn) [Cmpd 53, (5S)-5-((((6-(2-chloro-3-(3-chloro-2-(2-(2-hydroxy-3-methylbutyl)-8-methoxy-1,2,3,4-tetrahydroisoquinolin-6-yl)pyridin-4-yl)phenyl)-2-methoxypyridin-3-yl)methyl)amino)methyl)pyrrolidin-2-one]"
2,24.3 nM and 21.5 nM,"COc1cc(-c2nccc(-c3cccc(-c4ccc(CNC[C@@H]5CCC(=O)N5)c(OC)n4)c3Cl)c2Cl)cc2c1CN(CCO)CC2 [Cmpd 54, (S)-5-((((6-(2-chloro-3-(3-chloro-2-(2-(2-hydroxyethyl)-8-methoxy-1,2,3,4-tetrahydroisoquinolin-6-yl)pyridin-4-yl)phenyl)-2-methoxypyridin-3-yl)methyl)amino)methyl)pyrrolidin-2-one]"
3,19.8 nM,"COc1cc(-c2nccc(-c3cccc(-c4ccc5c(CNC6CCN(C(C)=O)CC6)cn(C)c5n4)c3Cl)c2Cl)ccc1CNC[C@@H]1CCC(=O)N1 [Cmpd 57, (S)-5-(((4-(4-(3-(3-(((1-acetylpiperidin-4-yl)amino)methyl)-1-methyl-1H-pyrrolo[2,3-b]pyridin-6-yl)-2-chlorophenyl)-3-chloropyridin-2-yl)-2-methoxybenzyl)amino)methyl)pyrrolidin-2-one]"
4,40.8 nM,"COc1cc(-c2nccc(-c3cccc(-c4ccc(CNC[C@@H]5CCC(=O)N5)c(OC)n4)c3Cl)c2Cl)cc2c1CN(CCCF)CC2 [Cmpd 63, (S)-5-((((6-(2-chloro-3-(3-chloro-2-(2-(3-fluoropropyl)-8-methoxy-1,2,3,4-tetrahydroisoquinolin-6-yl)pyridin-4-yl)phenyl)-2-methoxypyridin-3-yl)methyl)amino)methyl)pyrrolidin-2-one]"
5,413 nM,"COc1cc(-c2nccc(-c3cccc(-c4ccc(CNC[C@@H]5CCC(=O)N5)c(OC)n4)c3Cl)c2Cl)ccc1CN1CCC[C@H]1C(=O)OC(C)C [Cmpd 68, isopropyl (4-(3-chloro-4-(2-chloro-3-(6-methoxy-5-(((((S)-5-oxopyrrolidin-2-yl)methyl)amino)methyl)pyridin-2-yl)phenyl)pyridin-2-yl)-2-methoxybenzyl)-L-prolinate]"
6,56.6 nM,"COc1nc(-c2cccc(-c3ccnc(-c4cc(Cl)c5c(c4)CCN(C[C@H](C)O)C5)c3Cl)c2Cl)ccc1CNC[C@@H]1CCC(=O)N1 [Cmpd 69, (S)-5-((((6-(2-chloro-3-(3-chloro-2-(8-chloro-2-((S)-2-hydroxypropyl)-1,2,3,4-tetrahydroisoquinolin-6-yl)pyridin-4-yl)phenyl)-2-methoxypyridin-3-yl)methyl)amino)methyl)pyrrolidin-2-one]"
7,49.4 nM,"COc1cc(-c2nccc(-c3cccc(-c4ccc(CNC[C@@H]5CCC(=O)N5)c(OC)n4)c3Cl)c2Cl)ccc1CNCCO [Cmpd 70, (S)-5-((((6-(2-chloro-3-(3-chloro-2-(4-(((2-hydroxyethyl)amino)methyl)-3-methoxyphenyl)pyridin-4-yl)phenyl)-2-methoxypyridin-3-yl)methyl)amino)methyl)pyrrolidin-2-one]"
8,16 nM,"COc1cc(-c2nccc(-c3cccc(-c4ccc(CNC[C@@H]5CCC(=O)N5)c(OC)n4)c3Cl)c2Cl)ccc1CN(C)C[C@H](C)O [Cmpd 75, (S)-5-((((6-(2-chloro-3-(3-chloro-2-(4-((((S)-2-hydroxypropyl)(methyl)amino)methyl)-3-methoxyphenyl)pyridin-4-yl)phenyl)-2-methoxypyridin-3-yl)methyl)amino)methyl)pyrrolidin-2-one]"
9,89.7 nM,"COc1cc(-c2nccc(-c3cccc(-c4ccc(CNC[C@@H]5CCC(=O)N5)c(OC)n4)c3Cl)c2Cl)ccc1CN1CC[C@H](C(=O)OC(C)C)C1 [Cmpd 76, isopropyl (S)-1-(4-(3-chloro-4-(2-chloro-3-(6-methoxy-5-(((((S)-5-oxopyrrolidin-2-yl)methyl)amino)methyl)pyridin-2-yl)phenyl)pyridin-2-yl)-2-methoxybenzyl)pyrrolidine-3-carboxylate]"
10,105 nM,"COc1cc(-c2nccc(-c3cccc(-c4ccc(CNC[C@@H]5CCC(=O)N5)c(OC)n4)c3Cl)c2Cl)ccc1CN1CC[C@H](C(=O)O)C1 [Cmpd 77, (S)-1-(4-(3-chloro-4-(2-chloro-3-(6-methoxy-5-(((((S)-5-oxopyrrolidin-2-yl)methyl)amino)methyl)pyridin-2-yl)phenyl)pyridin-2-yl)-2-methoxybenzyl)pyrrolidine-3-carboxylic acid]"
11,205 nM,"COc1cc(-c2nccc(-c3cccc(-c4ccc(CNC[C@@H]5CCC(=O)N5)c(OC)n4)c3Cl)c2Cl)ccc1CN1CCC[C@H]1C(=O)O [Cmpd 78, (4-(3-chloro-4-(2-chloro-3-(6-methoxy-5-(((((S)-5-oxopyrrolidin-2-yl)methyl)amino)methyl)pyridin-2-yl)phenyl)pyridin-2-yl)-2-methoxybenzyl)-L-proline]"

# Source: patent US20240246964A1 (Arbutus Biopharma Corporation, priority 2021, published 2024)
